The test has as its target T1, SaCas9 (Staphylococcus aureus, UniProt J7RUA5).
T1 sequence (J7RUA5 1-1053): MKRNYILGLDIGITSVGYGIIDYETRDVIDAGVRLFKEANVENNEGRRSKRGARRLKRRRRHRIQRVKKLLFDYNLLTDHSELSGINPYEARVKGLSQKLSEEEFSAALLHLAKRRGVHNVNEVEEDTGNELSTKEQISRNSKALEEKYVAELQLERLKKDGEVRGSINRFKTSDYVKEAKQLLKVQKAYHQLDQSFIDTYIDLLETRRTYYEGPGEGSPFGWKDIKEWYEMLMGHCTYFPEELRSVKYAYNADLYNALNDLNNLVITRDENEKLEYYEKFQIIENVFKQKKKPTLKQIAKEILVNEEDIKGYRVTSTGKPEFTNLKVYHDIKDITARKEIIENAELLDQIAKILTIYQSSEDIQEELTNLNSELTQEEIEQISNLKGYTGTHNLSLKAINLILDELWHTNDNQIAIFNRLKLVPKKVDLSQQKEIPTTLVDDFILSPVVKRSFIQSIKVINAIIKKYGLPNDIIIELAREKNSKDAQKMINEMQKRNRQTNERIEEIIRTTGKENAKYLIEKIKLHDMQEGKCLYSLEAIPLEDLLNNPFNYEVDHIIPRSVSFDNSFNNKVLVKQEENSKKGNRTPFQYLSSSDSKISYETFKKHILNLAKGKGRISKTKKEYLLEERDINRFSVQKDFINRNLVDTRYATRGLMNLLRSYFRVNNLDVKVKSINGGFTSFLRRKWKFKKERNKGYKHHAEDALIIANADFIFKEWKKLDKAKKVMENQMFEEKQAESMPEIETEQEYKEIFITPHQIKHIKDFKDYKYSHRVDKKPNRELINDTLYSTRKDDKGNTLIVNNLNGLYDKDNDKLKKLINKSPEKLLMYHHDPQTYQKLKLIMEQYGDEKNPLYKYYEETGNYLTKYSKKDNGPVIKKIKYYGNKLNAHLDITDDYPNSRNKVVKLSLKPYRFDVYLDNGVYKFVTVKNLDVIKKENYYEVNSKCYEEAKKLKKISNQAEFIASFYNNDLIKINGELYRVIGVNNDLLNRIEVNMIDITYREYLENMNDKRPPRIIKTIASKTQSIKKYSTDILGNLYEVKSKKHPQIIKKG
The experiment in a line: eGFP secondary assay, SaCas9. The test is classed as cell-based. The note with it: for Z score Avg Z: average of two replicates, Zscore>3 selected as hit; for Normalized Inhibition Rep 1: replicate 1; for Normalized eGFP Disruption Rep 1: replicate 1, % eGFP disruption; for Z score Rep1: replicate 1, Zscore>3 selected as hit; for Normalized Inhibition Rep 2: replicate 2; for Normalized eGFP Disruption Rep 2: replicate 2, % eGFP disruption; for Z score Rep 2: replicate 2, Zscore>3 selected as hit. The procedure:
All hit compounds were moved forward into the secondary and tertiary screens, in which they were tested in cell-based assays. An eGFP assay is used to determine hits in cells as the secondary screen (eGFP assay).
The eGFP secondary assay evaluated the hits identified from the primary screen. The compounds were judged off the % eGFP disruption to determine the Cas9 inhibition and the assay Zscore. […] The hits from the secondary screens will be processed through tertiary screens of dose studies and HiBit Assay as detailed herein.

For the compound `Fc1cccc(-c2nnc3sc(-c4c[nH]c5ccccc45)nn23)c1` [Compound D727-0772], the “Z score Avg Z” value is recorded as 3.957, the “Normalized Inhibition Rep 1” value stood at 42.243, the “Normalized eGFP Disruption Rep 1” value was found to be 57.757 and the “Z score Rep1” value amounted to 6.397. The “Normalized Inhibition Rep 2” value amounted to 12.707, the “Normalized eGFP Disruption Rep 2” value was 87.293 and the “Z score Rep 2” value is 1.517.
Consider `Cc1ccc(-n2ncc(C(=O)Nc3ccc(Br)cc3)c2C2CCNCC2)cc1` [Compound E922-0258], for which the “Z score Avg Z” value was found to be 7.627, the “Normalized Inhibition Rep 1” value worked out at 63.301, the “Normalized eGFP Disruption Rep 1” value is 36.699 and the “Z score Rep1” value amounted to 7.494. The “Normalized Inhibition Rep 2” value worked out at 59.004, the “Normalized eGFP Disruption Rep 2” value was 40.996 and the “Z score Rep 2” value is 7.761.
With `CCCCN(CC)C(=O)C1CCCN(c2ccc(-c3ccccc3)nn2)C1` (stereo not drawn) [Compound F305-0030], the “Z score Avg Z” value was 4.852, the “Normalized Inhibition Rep 1” value came out at 42.608, the “Normalized eGFP Disruption Rep 1” value is listed as 57.392 and the “Z score Rep1” value came out at 5.044. Further, the “Normalized Inhibition Rep 2” value is recorded as 35.423, the “Normalized eGFP Disruption Rep 2” value turned out to be 64.577 and the “Z score Rep 2” value was 4.659.
As to `Cc1nc(Nc2ccc(N3CCOCC3)cc2)cc(-c2ccccc2)n1` [D278-0547], the “Z score Avg Z” value worked out at 4.467, the “Normalized Inhibition Rep 1” value turned out to be 55.528, the “Normalized eGFP Disruption Rep 1” value is 44.472 and the “Z score Rep1” value is given as 5.583. In addition, the “Normalized Inhibition Rep 2” value is 43.307, the “Normalized eGFP Disruption Rep 2” value turned out to be 56.693 and the “Z score Rep 2” value stood at 3.352.
On to `Cc1ccccc1CC(=O)N1CCCC(c2nc(O)c3nnn(Cc4ccc(F)cc4)c3n2)C1` (stereo not drawn) [D297-0031], for which the “Z score Avg Z” value turned out to be 3.488, the “Normalized Inhibition Rep 1” value is 35.959, the “Normalized eGFP Disruption Rep 1” value amounted to 64.041 and the “Z score Rep1” value is listed as 3.615. For the same compound, the “Normalized Inhibition Rep 2” value was 43.425, the “Normalized eGFP Disruption Rep 2” value is on record as 56.575 and the “Z score Rep 2” value was 3.361.
On to `Cc1cc(=O)c2cc(C(=O)Nc3ccc(F)cc3)ccc2[nH]1` [D421-0876], for which the “Z score Avg Z” value was 3.719, the “Normalized Inhibition Rep 1” value is 37.535, the “Normalized eGFP Disruption Rep 1” value came out at 62.465 and the “Z score Rep1” value worked out at 3.774. Further, the “Normalized Inhibition Rep 2” value turned out to be 47.343, the “Normalized eGFP Disruption Rep 2” value was 52.657 and the “Z score Rep 2” value stood at 3.664.
In the case of `Cc1nc2nc(N(CCOc3ccccc3)S(=O)(=O)c3ccccc3)nn2c(C)c1Cl` [D513-3628], the “Z score Avg Z” value stood at 5.173, the “Normalized Inhibition Rep 1” value stood at 51.726, the “Normalized eGFP Disruption Rep 1” value is 48.274 and the “Z score Rep1” value came out at 5.201. Also, the “Normalized Inhibition Rep 2” value turned out to be 66.480, the “Normalized eGFP Disruption Rep 2” value was found to be 33.520 and the “Z score Rep 2” value amounted to 5.145.
Turning to `Cc1ccc(C)c(Nc2nc(C(N)=O)c(NC(=O)c3ccc(C)nc3Cl)s2)c1` [D686-0195], the “Z score Avg Z” value stood at 6.110, the “Normalized Inhibition Rep 1” value is given as 29.879, the “Normalized eGFP Disruption Rep 1” value was 70.121 and the “Z score Rep1” value amounted to 4.525. Moreover, the “Normalized Inhibition Rep 2” value is listed as 64.458, the “Normalized eGFP Disruption Rep 2” value stood at 35.542 and the “Z score Rep 2” value is reported as 7.696.
`O=c1oc2c(O)c(O)ccc2c2c1CCCC2` [D715-2438]: the “Z score Avg Z” value is 3.681, the “Normalized Inhibition Rep 1” value turned out to be 17.908, the “Normalized eGFP Disruption Rep 1” value came out at 82.092 and the “Z score Rep1” value turned out to be 2.712. Also, the “Normalized Inhibition Rep 2” value turned out to be 38.947, the “Normalized eGFP Disruption Rep 2” value came to 61.053 and the “Z score Rep 2” value was found to be 4.650.
On to `COc1ccccc1-c1nn2c(-c3cccnc3)nnc2s1` [D727-0059], for which the “Z score Avg Z” value was 3.290, the “Normalized Inhibition Rep 1” value turned out to be 17.227, the “Normalized eGFP Disruption Rep 1” value was 82.773 and the “Z score Rep1” value is recorded as 2.609. Besides, the “Normalized Inhibition Rep 2” value was 33.253, the “Normalized eGFP Disruption Rep 2” value is on record as 66.747 and the “Z score Rep 2” value was 3.970.
As to `Cc1cc(-c2nn3c(-c4cccc(F)c4)nnc3s2)c2ccccc2n1` [D727-0417], the “Z score Avg Z” value came out at 3.995, the “Normalized Inhibition Rep 1” value amounted to 33.326, the “Normalized eGFP Disruption Rep 1” value came to 66.674 and the “Z score Rep1” value is on record as 5.046. Besides, the “Normalized Inhibition Rep 2” value came out at 24.659, the “Normalized eGFP Disruption Rep 2” value amounted to 75.341 and the “Z score Rep 2” value is listed as 2.944.
For `Cc1nn(-c2ccccc2)c(C)c1CCc1nnc2sc(-c3ccc(N(C)C)cc3)nn12` [D727-0717], the “Z score Avg Z” value came to 6.053, the “Normalized Inhibition Rep 1” value turned out to be 33.284, the “Normalized eGFP Disruption Rep 1” value was determined as 66.716 and the “Z score Rep1” value turned out to be 5.040. Further, the “Normalized Inhibition Rep 2” value is 59.171, the “Normalized eGFP Disruption Rep 2” value was found to be 40.829 and the “Z score Rep 2” value is given as 7.065.
Take `CC(C)Cc1nnc2sc(-c3c[nH]c4ccccc34)nn12` [D727-0768]: the “Z score Avg Z” value is 4.634, the “Normalized Inhibition Rep 1” value was found to be 20.049, the “Normalized eGFP Disruption Rep 1” value was found to be 79.951 and the “Z score Rep1” value amounted to 3.036. Also, the “Normalized Inhibition Rep 2” value came out at 52.187, the “Normalized eGFP Disruption Rep 2” value is listed as 47.813 and the “Z score Rep 2” value is 6.231.
For `COc1cccc(N2C(=O)c3cc4ccccc4n3CC2(C)C(=O)NC2CCCCC2)c1` (stereo not drawn) [E234-0006], the “Z score Avg Z” value was 5.194, the “Normalized Inhibition Rep 1” value is 57.048, the “Normalized eGFP Disruption Rep 1” value worked out at 42.952 and the “Z score Rep1” value was found to be 6.753. The “Normalized Inhibition Rep 2” value is listed as 27.639, the “Normalized eGFP Disruption Rep 2” value is reported as 72.361 and the “Z score Rep 2” value was found to be 3.635.
For `CC1(C(=O)NC2CCCCC2)Cn2c(cc3ccccc32)C(=O)N1Cc1ccccc1` (stereo not drawn) [E234-0008], the “Z score Avg Z” value was determined as 5.237, the “Normalized Inhibition Rep 1” value came out at 50.589, the “Normalized eGFP Disruption Rep 1” value is 49.411 and the “Z score Rep1” value is 5.989. The “Normalized Inhibition Rep 2” value came out at 34.101, the “Normalized eGFP Disruption Rep 2” value came out at 65.899 and the “Z score Rep 2” value came to 4.485.
For the compound `COc1ccc(N2C(=O)c3cc4ccccc4n3CC2(C)C(=O)NC2CCCCC2)c(OC)c1` (stereo not drawn) [E234-0018], the “Z score Avg Z” value is reported as 3.770, the “Normalized Inhibition Rep 1” value was determined as 38.606, the “Normalized eGFP Disruption Rep 1” value turned out to be 61.394 and the “Z score Rep1” value was 4.570. Besides, the “Normalized Inhibition Rep 2” value turned out to be 22.579, the “Normalized eGFP Disruption Rep 2” value stood at 77.421 and the “Z score Rep 2” value came out at 2.970.
Regarding `CC(=O)Nc1ccc(C(=O)Nc2ccc(CCc3nc4ccccc4n3-c3ccccc3)cc2)cc1` [F255-0057], the “Z score Avg Z” value is given as 5.773, the “Normalized Inhibition Rep 1” value came to 46.812, the “Normalized eGFP Disruption Rep 1” value is 53.188 and the “Z score Rep1” value was 5.542. Moreover, the “Normalized Inhibition Rep 2” value was 45.641, the “Normalized eGFP Disruption Rep 2” value amounted to 54.359 and the “Z score Rep 2” value is listed as 6.003.
As to `CCCN(CCC)C(=O)C1CCCN(c2ccc(-c3ccccc3)nn2)C1` (stereo not drawn) [F305-0061], the “Z score Avg Z” value worked out at 5.220, the “Normalized Inhibition Rep 1” value was found to be 39.473, the “Normalized eGFP Disruption Rep 1” value is recorded as 60.527 and the “Z score Rep1” value is recorded as 4.673. Moreover, the “Normalized Inhibition Rep 2” value is reported as 43.845, the “Normalized eGFP Disruption Rep 2” value came out at 56.155 and the “Z score Rep 2” value turned out to be 5.767.

The values above are taken from patent US20240115557A1, “INHIBITORS OF RNA-GUIDED NUCLEASES AND USES THEREOF” (The Brigham and Women's Hospital, Inc., priority 2022, published 2024).
